Columns and labels:
[1] = Solubility in D2O by 1H NMR (Me2SO2 internal standard); type: physicochemical; details: 21 °C
Description: Solubility in water. A suspension of the selected Fe compound (3–5 mg) in a D2O solution (0.7 mL) containing Me2SO2 as internal standard^52 (3.36 ⋅ 10^−3 M) was vigorously stirred at 21 °C for 10 h. The resulting saturated solution was filtered over celite, transferred into an NMR tube and analysed by ^1H NMR spectroscopy (delay time=3 s; number of scans=20). For the most soluble compounds (S≥0.05 M), a saturated solution was prepared in a smaller volume of D2O/Me2SO2 (0.2–0.3 mL), then filtered and diluted with pure D2O. The concentration (solubility) was calculated by the relative integral with respect to Me2SO2 (δ/ppm=3.14 (s, 6H)).

[2] = tested on: untransformed HEK293 cells; assay: Cellular uptake, iron by GF-AAS; type: cell-based, human; details: 50 μM, 24 h, GF-AAS (μg Fe per 10^6 cells, Figure 4A)
Description: (§1) In order to correlate the cytotoxic potential to the ability of the newly developed complexes to enter cells, we performed uptake experiments. […] Thus, cells were treated for 24 h with equimolar concentrations (50 μM) of the tested compounds. The cellular iron levels were quantified by means of GF‐AAS analysis, and the results, expressed as μg Fe per 10^6 cells, are shown in Figure 4A. […]
(§2) Figure 4 Intracellular detection of iron and carbon monoxide. A) Cellular uptake in PSN‐1 and HEK293 cells; cells were incubated with 50 μM of complexes for 24 h, and the cellular iron content was detected by GFAAS analysis. B) Intracellular CO levels were determined by using a fluorescent probe (BioTracker Carbon Monoxide Probe 1 Live Cell Dye®, Merck, Germany) after 30 min of treatment of PSN‐1 or HEK293 cells with 20 μM [2C]CF3SO3 and [2D]CF3SO3, or 20 μM CORM‐401 as positive control. ** P<0.01, * P<0.05.
(§3) Cellular uptake. […] Cell monolayers were washed twice with cold PBS, harvested and counted. […] After cooling, each mineralized sample was analysed for iron using a Varian AA Duo graphite furnace atomic absorption spectrometer (Varian) at the wavelength of 248.3 nm. […]

[3] = tested on: human pancreatic PSN‐1 cancer cells; assay: Cellular uptake, iron by GF-AAS; type: cell-based; details: PSN‐1 cells, 50 μM, 24 h, GF-AAS (μg Fe per 10^6 cells, Figure 4A)
Description: as §1, §2, §3

## [Fe2Cp2(CO)2(μ‐CO){μ‐CNEt(2‐naphthyl)}]BF4 [[4G]BF4]
[1]
  Solubility: not soluble ^[a]

## [Fe2Cp2(CO)2(μ‐CO){μ‐CNMe(4‐C6H4OMe)}]CF3SO3 [[2D]CF3SO3]
[2]
  Cellular iron accumulation (uptake): major iron accumulation in untransformed cells with respect to pancreatic cancer cells
[3]
  Cellular iron accumulation (uptake): able to induce cellular iron accumulation

From publication PMC8362065, “Easily Available, Amphiphilic Diiron Cyclopentadienyl Complexes Exhibit in Vitro Anticancer Activity in 2D and 3D Human Cancer Cells through Redox Modulation Triggered by CO Release” (Chemistry (Weinheim an Der Bergstrasse, Germany), 2021)
